Assay results as given in patent US20110172171A1, “TAURINE OR TAURINE-LIKE SUBSTANCES FOR THE PREVENTION OF BRAIN OEDEMA” (priority 2008, published 2011).
Several values for one entry are separate records, joined by “and”; a condition that tells them apart may be missing. Equal values may be shown once. Entries after “also recorded” stand apart in the source; their conditions may differ.

Tested on: white matter adjacent to the cerebellar nuclei, and the nuclei
Assay: Vigabatrin-induced brain vacuolation in rats, histology of cerebellar sections scored by light microscopy
Type: in vivo, Wistar rats
Set-up: key to vacuolation score (grade) of cerebellum: 1: No or occasional individual vacuoles in perinuclear white matter.; 2: Mild to moderate regional vacuolation of perinuclear white matter, sometimes extending into nucleus.; 3: Extensive, widespread vacuolation of perinuclear white matter, often with involvement of adjacent nuclear regions. Vacuolation may extend to folial white matter
Conditions: for vacuolation score (grade) of cerebellum: blinded scoring; for vacuolation in the brain tissue (histological appearance): cerebellar sections
Method: Animal treatments: As described previously (Duboc A. et al. 2004; Izumi Y. et al. 2004), Wistar rats Rj Wi IOPS Han were purchased from Janvier (Le Genest-St-Isle, France) at between six and seven weeks of age. vigabatrin dissolved in 0.9% NaC1 was administered at 40mg (125 mg/ml, 0.32m1) to rats by daily intraperitoneal injection for 65 days. These daily doses (rats: 200mg/kg) are in-line with those described for the treatment of epilepsy (adult patients: […]; children: 50-75mg/kg; or infants: 100-150 mg/kg) (Chiron C. et al. 1997; Lux AL. et al. 2004; Aicardi J. et al. 1996). Taurine supplementation was given in drinking water at a concentration of 0.1M.
Histology: Rats were anesthetized by intraperitoneal injection (0.8 to 1.2 ml/kg) of a solution containing ketamine (40 mg/ml) and xylazine (4 mg/ml Rompum). Rat heads were removed and an opening created in the calvarium. These were then immersion fixed in 4% buffered formol (T/02170015, MMFrance) and then placed in phosphate buffered saline. Brains were then removed from the skulls and placed in 10% neutral buffered formalin. Brains were trimmed and their cerebellar nuclei placed in 10% buffered formalin and embedded in paraffin. Sections of the cerebellar nuclei were stained with hematoxylin and eosin.
Vacuolation of cerebellum was assessed by light microscopy, with the region of emphasis being the white matter adjacent to the cerebellar nuclei, and the nuclei. Vacuolation was scored as follows.
1- No or occasional individual vacuoles in perinuclear white matter.
2- Mild to moderate regional vacuolation of perinuclear white matter, sometimes extending into nucleus.
3- Extensive, widespread vacuolation of perinuclear white matter, often with involvement of adjacent nuclear regions. Vacuolation may extend to folial white matter

| vacuolation score (grade) of cerebellum (rats, vigabatrin 40 mg (200mg/kg) daily intraperitoneal injection for 65 days, n=7) | Structure (SMILES) | vacuolation score (grade) of cerebellum (vigabatrin-treated rats (200mg/kg daily i.p., 65 days) with taurine 0.1M in drinking water, n=7 (grade 1 n=3, grade 2 n=4), 200 mg/kg) | vacuolation in the brain tissue (histological appearance) (vigabatrin-treated rats supplemented with taurine (0.1M in drinking water), FIG. 1C) | vacuolation in the brain tissue (histological appearance) (vigabatrin-treated rats, FIG. 1B) |
| --- | --- | --- | --- | --- |
| – | NCCS(=O)(=O)O [taurine, 2-aminoethanesulfonic acid] | 1 and 2 | mild and vacuoles were present in some animals but appeared at a much lower density | – |
| 3 | C=CC(N)CCC(=O)O (stereo not shown) [vigabatrin, 4-amino-5-hexenoic acid, reference compound] | – | – | extensive; also recorded: a great number of vacuoles |
